We go through 2 compounds from ChEMBL document CHEMBL5120976, “Application of Deuterated N,N-Dimethyltryptamine in the Potential Treatment of Psychiatric and Neurological Disorders” (ACS Med Chem Lett, 2022).

What all share (type): ADME, cell-based, Hepatocyte
Data set [1] can be described thus: Half life in human hepatocytes.
A short description of data set [2]: Intrinsic clearance in human hepatocytes assessed per 10^6 cells relative to SPL026.
A short description of data set [3]: Intrinsic clearance in human hepatocytes assessed per 10^6 cells. Conditions: read-out: CLH.

For `O=C(O)/C=C/C(=O)O.[2H]C([2H])([2H])N(C([2H])([2H])[2H])C([2H])([2H])Cc1c[nH]c2ccccc12`, the half-life (usually the time needed for the level to fall by half in the phase considered) in data set [1] came to 3.45 h. The “fold change (FC)” value in data set [2] turned out to be 2.1. The hepatocyte CLint in data set [3] was 9.3 µL/min/1e6 cells.

Take `O=C(O)/C=C/C(=O)O.[2H]C([2H])([2H])N(CCc1c[nH]c2ccccc12)C([2H])([2H])[2H]`: the “fold change (FC)” value in data set [2] stood at 1.1.
